Consider 2 compounds from patent publication US12042520B2 (SOLUVEG SA, priority 2015, dated 2024).

Series [1] is described as follows: Curcumin plasma concentration after intravenous administration in the pig (for comparison). The series is classed as in vivo. To be noted: 0.60 grams for 23 kg.
For series [2] the following is noted: piperine used with curcumin; cited from earlier work.

Molecules are shown by their SMILES.

In the case of `COc1cc(/C=C/C(=O)CC(=O)/C=C/c2ccc(O)c(OC)c2)ccc1O` [Curcumin, curcumin], in series [1], the “Time for which the plasma concentration remains at a constant level” value came out at 10 h and the “Time of plasma concentration peak” value turned out to be 24 h. Moreover, in series [1] (plasma, 0.6 grams for 23 kg of live weight, 0 hours), the concentration at 0 hours was 0 ng/mL. In series [1] (plasma, 0.6 grams for 23 kg of live weight, 3 hours), this compound had a concentration at 3 hours of 537 ng/mL. This compound also gave a concentration at 6 hours in series [1] (plasma, 0.6 grams for 23 kg of live weight, 6 hours) of 557 ng/mL. Further, in series [1] (plasma, 0.6 grams for 23 kg of live weight, 9 hours), the concentration at 9 hours came out at 713 ng/mL. The compound further yielded a concentration at 24 hours in series [1] (plasma, 0.6 grams for 23 kg of live weight, 24 hours) of 724 ng/mL. Also, the concentration at 48 hours in series [1] (plasma, 0.6 grams for 23 kg of live weight, 48 hours) is 537 ng/mL. Also, in series [1] (plasma, 0.6 grams for 23 kg of live weight, 72 hours), the concentration at 72 hours amounted to 385 ng/mL.

On to `O=C(/C=C/C=C/c1ccc2c(c1)OCO2)N1CCCCC1` [piperine], for which the “Effect in the intestine (in words)” value in series [2] is on record as “irritating effect in the intestine”.
